# Results from ChEMBL document CHEMBL3880436, “Pharmaceutical composition containing optically active compound having thrombopoietin receptor agonist activity, and intermediate therefor” (2013).
# Calls of active or inactive are those of the source. The calls are words filed in the database; no cut-off is given here.
# What was measured:
# [1] = target: T1, Thrombopoietin receptor (Homo sapiens) (UniProt P40238); experiment: Agonist activity at human TPO receptor expressed in mouse BaF-B03 cells assessed as induction of cell proliferation after 20 hrs by WST-1 assay; format: cell-based
# T1 sequence (whole entry): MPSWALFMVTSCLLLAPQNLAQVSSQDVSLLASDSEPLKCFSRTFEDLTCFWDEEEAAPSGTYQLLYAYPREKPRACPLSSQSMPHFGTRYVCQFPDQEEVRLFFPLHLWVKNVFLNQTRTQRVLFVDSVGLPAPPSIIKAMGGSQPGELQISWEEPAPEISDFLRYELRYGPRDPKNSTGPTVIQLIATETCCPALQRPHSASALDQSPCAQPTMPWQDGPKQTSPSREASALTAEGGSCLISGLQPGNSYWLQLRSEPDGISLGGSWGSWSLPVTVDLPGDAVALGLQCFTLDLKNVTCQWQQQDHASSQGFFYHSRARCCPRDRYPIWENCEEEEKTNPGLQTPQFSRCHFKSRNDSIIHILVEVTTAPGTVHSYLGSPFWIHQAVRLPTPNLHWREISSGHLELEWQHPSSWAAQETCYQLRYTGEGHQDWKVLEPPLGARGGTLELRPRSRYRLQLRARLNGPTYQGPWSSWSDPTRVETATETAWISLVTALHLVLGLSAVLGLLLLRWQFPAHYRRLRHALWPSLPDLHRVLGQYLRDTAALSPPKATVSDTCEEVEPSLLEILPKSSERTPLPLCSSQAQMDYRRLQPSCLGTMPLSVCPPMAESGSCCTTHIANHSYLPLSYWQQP
# Mus musculus = experiment: Increase in platelet levels in mouse expressing human transmembrane site of TPO receptor administered as po bid for 2 weeks measured after 3 days to 3 weeks post initiation of initial dose relative to vehicle-treated control; format: functional, organism-based
SMILES,ED50 [1],Activity (Mus musculus)
CCCO[C@H](c1cccc(-c2csc(NC(=O)c3cc(Cl)c(/C=C(\C)C(=O)O)c(Cl)c3)n2)c1OC)C(C)(C)C,,Active
CCCCCCO[C@@H](C)c1cccc(-c2csc(NC(=O)c3cc(Cl)c(/C=C(\C)C(=O)O)c(Cl)c3)n2)c1OC,1.09 nM,Active
CCCCCCO[C@H](C)c1cccc(-c2csc(NC(=O)c3cc(Cl)c(/C=C(\C)C(=O)O)c(Cl)c3)n2)c1OC,1.4 nM,Active

# Continued, in another order:
ED50 [1],SMILES,Activity (Mus musculus)
2.08 nM,CCCCCC[C@H](OC)c1cccc(-c2csc(NC(=O)c3cc(Cl)c(/C=C(\C)C(=O)O)c(Cl)c3)n2)c1OC,Active
3.09 nM,CCCCCC[C@@H](OC)c1cccc(-c2csc(NC(=O)c3cc(Cl)c(/C=C(\C)C(=O)O)c(Cl)c3)n2)c1OC,Active
